Assay results taken from the supplement of paper PMC10307832.

How the values were obtained:
Assay in all cases: relative viability (nuclei count vs DMSO), 5 days (fraction); higher = more cells survive
NCI-H1395 = test system: NCI-H1395
Summary of the method: (§1)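 Lung cancer cell lines were seeded in 1536-well plates and dosed by pin tool the next day, with either a single drug or a fixed anchor-drug dose combined with five library-drug doses (not always all listed) spaced in √10 steps. Five days later, one step fixed the cells and stained their nuclei (final 0.05% Triton X-100, 1% formaldehyde, 1 ug/ml Hoechst), and nuclei were counted on 4× images. Relative viability is the nuclei count in treated wells divided by the count in vehicle wells, and each value is the median of duplicate plates.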

SK-MES-1 = test system: SK-MES-1
Summary of the method: as §1

NCI-H1734 = test system: NCI-H1734
Summary of the method: as §1

EKVX = test system: EKVX
Summary of the method: as §1

NCI-H1355 = test system: NCI-H1355
Summary of the method: as §1

NCI-H1437 = test system: NCI-H1437
Summary of the method: as §1

NCI-H2009 = test system: NCI-H2009
Summary of the method: as §1

SK-LU-1 = test system: SK-LU-1
Summary of the method: as §1

NCI-H661 = test system: NCI-H661
Summary of the method: as §1

HCC-827 = test system: HCC-827
Summary of the method: as §1

NCI-H1993 = test system: NCI-H1993
Summary of the method: as §1

LOU-NH91 = test system: LOU-NH91
Summary of the method: as §1

NCI-H1792 = test system: NCI-H1792
Summary of the method: as §1

HCC-366 = test system: HCC-366
Summary of the method: as §1

NCI-H647 = test system: NCI-H647
Summary of the method: as §1

NCI-H2170 = test system: NCI-H2170
Summary of the method: as §1

BEN = test system: BEN
Summary of the method: as §1

NCI-H2087 = test system: NCI-H2087
Summary of the method: as §1

HARA = test system: HARA
Summary of the method: as §1

NCI-H2405 = test system: NCI-H2405
Summary of the method: as §1

Structure (SMILES): O=c1cc(-c2cccc3c2Sc2ccccc2S3)oc(N2CCOCC2)c1 + CS(=O)(=O)CCNCc1ccc(-c2ccc3ncnc(Nc4ccc(OCc5cccc(F)c5)c(Cl)c4)c3c2)o1 [Lapatinib] (partner 2 µM)
- relative viability (NCI-H1395; first compound 0.08 µM): 0.971
- relative viability (NCI-H1395; first compound 0.253 µM): 1.04
- relative viability (NCI-H1395; first compound 0.8 µM): 1.02
- relative viability (NCI-H1395; first compound 2.53 µM): 1.16
- relative viability (NCI-H1395; first compound 8 µM): 0.949
- relative viability (SK-MES-1; first compound 0.08 µM): 0.487
- relative viability (SK-MES-1; first compound 0.253 µM): 0.562
- relative viability (SK-MES-1; first compound 0.8 µM): 0.445
- relative viability (SK-MES-1; first compound 2.53 µM): 0.483
- relative viability (SK-MES-1; first compound 8 µM): 0.439
- relative viability (NCI-H1734; first compound 0.08 µM): 1.07
- relative viability (NCI-H1734; first compound 0.253 µM): 1.55
- relative viability (NCI-H1734; first compound 0.8 µM): 1.12
- relative viability (NCI-H1734; first compound 2.53 µM): 0.79
- relative viability (NCI-H1734; first compound 8 µM): 1.51
- relative viability (EKVX; first compound 0.08 µM): 0.226
- relative viability (EKVX; first compound 0.253 µM): 0.186
- relative viability (EKVX; first compound 0.8 µM): 0.166
- relative viability (EKVX; first compound 2.53 µM): 0.186
- relative viability (EKVX; first compound 8 µM): 0.202
- relative viability (NCI-H1355; first compound 0.08 µM): 0.963
- relative viability (NCI-H1355; first compound 0.253 µM): 1.15
- relative viability (NCI-H1355; first compound 0.8 µM): 0.799
- relative viability (NCI-H1355; first compound 2.53 µM): 0.956
- relative viability (NCI-H1355; first compound 8 µM): 1.05
- relative viability (NCI-H1437; first compound 0.08 µM): 0.782
- relative viability (NCI-H1437; first compound 0.253 µM): 1.2
- relative viability (NCI-H1437; first compound 0.8 µM): 0.817
- relative viability (NCI-H1437; first compound 2.53 µM): 0.751
- relative viability (NCI-H1437; first compound 8 µM): 1
- relative viability (NCI-H2009; first compound 0.08 µM): 0.879
- relative viability (NCI-H2009; first compound 0.253 µM): 0.893
- relative viability (NCI-H2009; first compound 0.8 µM): 0.876
- relative viability (NCI-H2009; first compound 2.53 µM): 0.895
- relative viability (NCI-H2009; first compound 8 µM): 0.823
- relative viability (SK-LU-1; first compound 0.08 µM): 1.02
- relative viability (SK-LU-1; first compound 0.253 µM): 0.858
- relative viability (SK-LU-1; first compound 0.8 µM): 0.968
- relative viability (SK-LU-1; first compound 2.53 µM): 0.817
- relative viability (SK-LU-1; first compound 8 µM): 0.836
- relative viability (NCI-H661; first compound 0.08 µM): 0.481
- relative viability (NCI-H661; first compound 0.253 µM): 0.412
- relative viability (NCI-H661; first compound 0.8 µM): 0.543
- relative viability (NCI-H661; first compound 2.53 µM): 0.464
- relative viability (NCI-H661; first compound 8 µM): 0.579
- relative viability (HCC-827; first compound 0.08 µM): 0.189
- relative viability (HCC-827; first compound 0.253 µM): 0.196
- relative viability (HCC-827; first compound 0.8 µM): 0.168
- relative viability (HCC-827; first compound 2.53 µM): 0.189
- relative viability (HCC-827; first compound 8 µM): 0.178
- relative viability (NCI-H1993; first compound 0.08 µM): 0.773
- relative viability (NCI-H1993; first compound 0.253 µM): 0.802
- relative viability (NCI-H1993; first compound 0.8 µM): 0.849
- relative viability (NCI-H1993; first compound 2.53 µM): 0.875
- relative viability (NCI-H1993; first compound 8 µM): 0.844
- relative viability (LOU-NH91; first compound 0.08 µM): 0.707
- relative viability (LOU-NH91; first compound 0.253 µM): 0.803
- relative viability (LOU-NH91; first compound 0.8 µM): 0.554
- relative viability (LOU-NH91; first compound 2.53 µM): 0.751
- relative viability (LOU-NH91; first compound 8 µM): 0.732
- relative viability (NCI-H1792; first compound 0.253 µM): 1
- relative viability (NCI-H1792; first compound 0.8 µM): 0.824
- relative viability (NCI-H1792; first compound 2.53 µM): 0.83
- relative viability (NCI-H1792; first compound 8 µM): 1.58
- relative viability (HCC-366; first compound 0.08 µM): 1.12
- relative viability (HCC-366; first compound 0.253 µM): 1.71
- relative viability (HCC-366; first compound 0.8 µM): 1.12
- relative viability (HCC-366; first compound 2.53 µM): 0.995
- relative viability (HCC-366; first compound 8 µM): 1.56
- relative viability (NCI-H647; first compound 0.08 µM): 1.19
- relative viability (NCI-H647; first compound 0.253 µM): 1.21
- relative viability (NCI-H647; first compound 0.8 µM): 0.985
- relative viability (NCI-H647; first compound 2.53 µM): 0.886
- relative viability (NCI-H647; first compound 8 µM): 0.83
- relative viability (NCI-H2170; first compound 0.08 µM): 0.258
- relative viability (NCI-H2170; first compound 0.253 µM): 0.284
- relative viability (NCI-H2170; first compound 0.8 µM): 0.239
- relative viability (NCI-H2170; first compound 2.53 µM): 0.271
- relative viability (NCI-H2170; first compound 8 µM): 0.308
- relative viability (BEN; first compound 0.08 µM): 0.703
- relative viability (BEN; first compound 0.253 µM): 0.706
- relative viability (BEN; first compound 0.8 µM): 0.81
- relative viability (BEN; first compound 2.53 µM): 0.734
- relative viability (BEN; first compound 8 µM): 1.05
- relative viability (NCI-H2087; first compound 0.08 µM): 0.981
- relative viability (NCI-H2087; first compound 0.253 µM): 0.98
- relative viability (NCI-H2087; first compound 0.8 µM): 1.13
- relative viability (NCI-H2087; first compound 2.53 µM): 0.959
- relative viability (NCI-H2087; first compound 8 µM): 1.4
- relative viability (HARA; first compound 0.08 µM): 0.662
- relative viability (HARA; first compound 0.253 µM): 0.751
- relative viability (HARA; first compound 0.8 µM): 0.562
- relative viability (HARA; first compound 2.53 µM): 0.632
- relative viability (HARA; first compound 8 µM): 0.719
- relative viability (NCI-H2405; first compound 0.08 µM): 0.928
- relative viability (NCI-H2405; first compound 0.253 µM): 1.1
- relative viability (NCI-H2405; first compound 0.8 µM): 1.02
- relative viability (NCI-H2405; first compound 2.53 µM): 0.937
- relative viability (NCI-H2405; first compound 8 µM): 1.02
